In ChEMBL document CHEMBL3638544, “Phenalkylamine derivatives, pharmaceutical compositions containing them, and their use in therapy” (2015):

Molecular target: T1, Sodium- and chloride-dependent glycine transporter 1 (Homo sapiens, UniProt P48067)
T1 sequence (P48067 whole entry): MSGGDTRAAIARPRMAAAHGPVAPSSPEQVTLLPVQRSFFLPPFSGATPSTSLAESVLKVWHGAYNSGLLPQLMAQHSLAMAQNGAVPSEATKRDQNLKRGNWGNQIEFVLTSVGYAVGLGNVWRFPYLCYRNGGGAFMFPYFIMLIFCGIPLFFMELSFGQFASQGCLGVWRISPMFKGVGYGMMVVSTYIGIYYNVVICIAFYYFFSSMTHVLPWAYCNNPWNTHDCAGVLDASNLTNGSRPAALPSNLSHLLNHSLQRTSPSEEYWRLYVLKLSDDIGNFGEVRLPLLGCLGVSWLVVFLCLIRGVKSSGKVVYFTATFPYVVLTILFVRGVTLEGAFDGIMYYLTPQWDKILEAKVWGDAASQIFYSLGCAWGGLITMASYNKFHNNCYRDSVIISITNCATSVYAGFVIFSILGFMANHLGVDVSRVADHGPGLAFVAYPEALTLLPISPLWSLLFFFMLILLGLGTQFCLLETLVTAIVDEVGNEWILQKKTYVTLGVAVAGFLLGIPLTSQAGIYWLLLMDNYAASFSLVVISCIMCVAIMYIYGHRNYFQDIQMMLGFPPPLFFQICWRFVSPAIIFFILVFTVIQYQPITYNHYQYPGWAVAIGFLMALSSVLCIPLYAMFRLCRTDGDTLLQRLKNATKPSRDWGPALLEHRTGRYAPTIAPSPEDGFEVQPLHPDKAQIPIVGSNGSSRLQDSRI
Assay: Radioligand Binding Assay: Radioligand binding to human GlyT1c transporter-expressing membranes was determined as described in Mezler et al., Molecular Pharmacology 74:1705-1715, 2008.

In the case of `NCC(Cc1ccccc1)c1ccc2c(c1)CN(S(=O)(=O)CC1CC1)CC2` (stereo unspecified), the Ki is reported as less than 10 µM.
